Results reported in the supplement of paper PMC10627819.

Tests used:
S. pneumoniae D39V [1] = assay: fitness (endpoint OD595 vs no drug) (fraction); higher = more growth
Outline: (§1)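 In 384-well plates at 37 °C, cultures began at OD595 0.01 in 30 µl, with 55 µl used for S. pneumoniae. OD595 readings every 30 min for 14 h were corrected by the first reading. Fitness divides the stationary-phase transition optical density by the robust mean of no-drug control wells. The result is capped at 1.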

S. aureus DSM 20231 [2] = assay: as above
Outline: as §1

S. aureus Newman [3] = assay: as above
Outline: as §1

S. pneumoniae D39V [4] = assay: Bliss interaction score (quartile over a dose matrix) (fitness difference); higher = more antagonism (negative = synergy)
Outline: (§2)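 Growth was read as OD595 when cultures entered stationary phase, and each value was divided by the plate's robust no-drug mean and capped at 1. This normalised ratio is the fitness value, and fitness for each single drug came from the combination data. The Bliss score subtracts the expected fitness, taken as the product, from the observed fitness and is given as quartiles across technical, biological and donor/recipient replicates.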

S. aureus DSM 20231 [5] = assay: as above
Outline: as §2

B. subtilis 168 = assay: as above
Outline: as §2

S. aureus Newman [6] = assay: as above
Outline: as §2
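For Bliss interaction score (quartile over a dose matrix) in this document: first quartile when negative (synergy) and third quartile when positive (antagonism).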
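For fitness (endpoint OD595 vs no drug) in this document: OD595 on entry to stationary phase over no-drug wells; at most 1.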

CN(N=O)C(=O)N[C@@H](C=O)[C@@H](O)[C@H](O)[C@H](O)CO [Streptozotocin] + Cn1nnc(-c2ccc(-c3ccc(N4C[C@H](CO)OC4=O)cc3F)cn2)n1 [Tedizolid]
fitness
Conditions	partner 0.03125 µg/mL	partner 0.0625 µg/mL	partner 0.125 µg/mL	partner 0.25 µg/mL
S. aureus DSM 20231 [2], first compound 0.15 µg/mL	–	0.799	0.553	0.207
S. aureus DSM 20231 [2], first compound 0.3 µg/mL	–	0.833	0.58	0.195
S. aureus DSM 20231 [2], first compound 0.6 µg/mL	–	0.701	0.5	0.152
S. aureus Newman [3], first compound 0.15 µg/mL	–	0.822	0.737	0.304
S. aureus Newman [3], first compound 0.3 µg/mL	–	0.638	–	0.297
S. aureus Newman [3], first compound 0.6 µg/mL	–	0.471	0.409	0.151
S. pneumoniae D39V [1], first compound 1.2 µg/mL	0.921	0.923	0.809	–
S. pneumoniae D39V [1], first compound 2.4 µg/mL	0.921	0.908	0.828	–
S. pneumoniae D39V [1], first compound 4.8 µg/mL	0.932	0.868	0.87	–

fitness, S. pneumoniae D39V [1], one replicate
Conditions	first compound 1.2 µg/mL	first compound 2.4 µg/mL	first compound 4.8 µg/mL
partner 0.25 µg/mL	0.598	0.653	0.791
partner 0.5 µg/mL	0.426	0.464	0.547

Conditions	Bliss interaction score
B. subtilis 168	-0.0702
S. aureus DSM 20231 [5]	0.0552
S. aureus Newman [6]	-0.0487
S. pneumoniae D39V [4]	-0.075

Cc1onc(-c2ccccc2)c1C(=O)N[C@@H]1C(=O)N2[C@@H]1SC(C)(C)[C@@H]2C(=O)O [Oxacillin] + Cn1nnc(-c2ccc(-c3ccc(N4C[C@H](CO)OC4=O)cc3F)cn2)n1 [Tedizolid]
fitness
Conditions	partner 0.03125 µg/mL	partner 0.0625 µg/mL	partner 0.125 µg/mL	partner 0.25 µg/mL	partner 0.5 µg/mL
S. aureus DSM 20231 [2], first compound 0.0156 µg/mL	–	0.791	0.731	0.312	–
S. aureus DSM 20231 [2], first compound 0.0312 µg/mL	–	0.687	0.593	0.279	–
S. aureus DSM 20231 [2], first compound 0.0625 µg/mL	–	0.51	0.503	0.261	–
S. aureus Newman [3], first compound 0.0156 µg/mL	–	0.746	0.673	0.425	–
S. aureus Newman [3], first compound 0.0312 µg/mL	–	0.693	0.579	0.24	–
S. aureus Newman [3], first compound 0.0625 µg/mL	–	0.562	0.481	0.159	–
S. pneumoniae D39V [1], first compound 0.01 µg/mL	0.974	0.931	0.851	0.683	0.336
S. pneumoniae D39V [1], first compound 0.02 µg/mL	0.935	0.933	0.835	0.644	0.39
S. pneumoniae D39V [1], first compound 0.04 µg/mL	–	0.728	0.614	0.468	0.157

Conditions	Bliss interaction score
B. subtilis 168	-0.0469
S. aureus DSM 20231 [5]	0.0921
S. aureus Newman [6]	-0.0682
S. pneumoniae D39V [4]	0.0979

Cn1c2cccc(=O)c-2nc2ccccc21 [Pyocyanin] + CN[C@H](CC(C)C)C(=O)N[C@H]1C(=O)N[C@@H](CC(N)=O)C(=O)N[C@H]2C(=O)N[C@H]3C(=O)N[C@H](C(=O)N[C@H](C(=O)O)c4cc(O)cc(O)c4-c4cc3ccc4O)[C@H](O)c3ccc(c(Cl)c3)Oc3cc2cc(c3O[C@@H]2O[C@H](CO)[C@@H](O)[C@H](O)[C@H]2O[C@H]2C[C@](C)(N)[C@H](O)[C@H](C)O2)Oc2ccc(cc2Cl)[C@H]1O [Vancomycin]
Conditions	fitness
S. aureus DSM 20231 [2], first compound 1.25 µg/mL, partner 0.1875 µg/mL	0.796
S. aureus DSM 20231 [2], first compound 1.25 µg/mL, partner 0.375 µg/mL	0.856
S. aureus DSM 20231 [2], first compound 1.25 µg/mL, partner 0.75 µg/mL	0.921
S. aureus DSM 20231 [2], first compound 2.5 µg/mL, partner 0.1875 µg/mL	0.852
S. aureus DSM 20231 [2], first compound 2.5 µg/mL, partner 0.375 µg/mL	0.861
S. aureus DSM 20231 [2], first compound 2.5 µg/mL, partner 0.75 µg/mL	0.934
S. aureus DSM 20231 [2], first compound 5 µg/mL, partner 0.1875 µg/mL	0.659
S. aureus DSM 20231 [2], first compound 5 µg/mL, partner 0.375 µg/mL	0.745
S. aureus DSM 20231 [2], first compound 5 µg/mL, partner 0.75 µg/mL	0.726
S. aureus Newman [3], first compound 1.25 µg/mL, partner 0.1875 µg/mL	0.907
S. aureus Newman [3], first compound 1.25 µg/mL, partner 0.375 µg/mL	0.899
S. aureus Newman [3], first compound 1.25 µg/mL, partner 0.75 µg/mL	0.84
S. aureus Newman [3], first compound 2.5 µg/mL, partner 0.1875 µg/mL	0.855
S. aureus Newman [3], first compound 2.5 µg/mL, partner 0.375 µg/mL	0.768
S. aureus Newman [3], first compound 5 µg/mL, partner 0.75 µg/mL	0.393
S. pneumoniae D39V [1], first compound 0.325 µg/mL, partner 0.03125 µg/mL	≥ 1
S. pneumoniae D39V [1], first compound 0.325 µg/mL, partner 0.0625 µg/mL	0.994
S. pneumoniae D39V [1], first compound 0.325 µg/mL, partner 0.125 µg/mL	0.921
S. pneumoniae D39V [1], first compound 0.65 µg/mL, partner 0.03125 µg/mL	0.962
S. pneumoniae D39V [1], first compound 0.65 µg/mL, partner 0.0625 µg/mL	0.952
S. pneumoniae D39V [1], first compound 1.3 µg/mL, partner 0.03125 µg/mL	0.686
S. pneumoniae D39V [1], first compound 1.3 µg/mL, partner 0.0625 µg/mL	0.651

fitness, S. pneumoniae D39V [1], one replicate
Conditions	first compound 0.325 µg/mL	first compound 0.65 µg/mL
partner 0.25 µg/mL	0.584	0.724
partner 0.5 µg/mL	0.314	0.391

Conditions	Bliss interaction score
B. subtilis 168	-0.0201
S. aureus DSM 20231 [5]	0.0758
S. aureus Newman [6]	0.0784
S. pneumoniae D39V [4]	0.0635
